Experiments:
RAS = assay: Effect on RAS degradation (GSK3β, Wnt/β-catenin pathway proteins); format: cell-based
[1] = tested on: miR-30c and miR-21 in mutant KRAS; assay: miR-30c and miR-21 and tumor suppressor gene expression (microarray analysis); format: cell-based
Text: The effect of Compound 1 on the expression of miR 30c and miR-21 in mutant form of KRAS and Wild type was observed. […] Based on these observation our molecules targets miRNA in KRAS mutant model which acts as an attractive therapeutic tools in cancer medicine, because these miRNA that can silence multiple gene(s) and therefore switch off different pathways simultaneously, which is not possible with protein-based drugs and other covalent inhibitor of different KRAS mutant form, and eventually Compound 1 has no toxicity or off target effects compared to other standard drugs

Pharmacokinetics in rats = format: in vivo
[2] = Crossing blood-brain barrier: pharmacokinetics in brain regions; format: in vivo; design: AUC0-t_D: concentration or dose not given beside the values
[3] = tested on: mutant-KRAS-driven cancer; assay: In vivo tumor model (PDTX animal model); design: species or system mice
Text: FIG. 18 depicts regression of all mutant-KRAS-driven cancer in PDTX Animal Model.
Compound 1 was also found to inhibit downstream signaling.

[4] = tested on: cancer cells expressing KRAS mutations; assay: Cell viability assay in cancer cells expressing KRAS mutations; format: cell-based
Text: It was further examined that if Compound 1 can also induce cytotoxic effects on other cancer cells expressing KRAS mutations, a panel of cancer cell lines which harbor KRAS G12D, G12V and G12C point mutations respectively, were selected and used with KRAS wild-type (WT) controls.
The cytotoxicity of Compound 1 was initially evaluated in a panel of 30+ cell lines with wild-type (WT) KRAS or known KRAS mutations.

KRAS mutant cell lines = assay: Apoptosis by Annexin V-FITC/PI staining and flow cytometry; format: cell-based; conditions: mutant cancer cells, 24 h
Procedure: FIG. 6 depicts the compound I induces apoptosis in KRAS-dependent cancer cell line • FIG. 6(A)—Morphological changes after 24 h exposure to compound I ([…]) were captured by an Epifluroscent microscope with ×100 magnification, scale bar: 20 μm. • FIG. 6(B)—Cells were treated with 250 nm of Compound I for 24 h and apoptosis levels were quantitatively measured with flow cytometry after staining cells with Annexin V/propidium iodide (PI), and triplicate data were plotted as bar chart diagram. • FIG. 6(C)—Representative western blot data of different apoptosis-related protein (PARP, Bcl-2, and Bax) confirmed induction of cellular apoptosis after treatment ([…]) for 24 h. […]
Compound 1 was subjected to cancer induced model and determined whether the observed growth inhibition was due to apoptosis or necrosis. […] Next, applying standard Annex in V-FITC/PI staining followed by flow cytometry analysis, the percentage of apoptotic and necrotic cells were quantitatively measured. […] Furthermore, to examine compound-induced apoptosis in KRAS mutant cells, the expression levels of several well-characterized apoptotic proteins were analyzed by western blotting. […] The densitometry quantitation of the ratio of Bax/Bcl2 protein expression and PARP cleavage relative to GAPHD is shown as a bar chart in […].

wild-type (WT) KRAS = assay: RAS activation assay, GTP-KRAS in wild-type cells; format: cell-based
Text: Actually, mutant KRAS would interfere the balance between GEFs and GAPs, resulting in locking in the active GTP-bound KRAS state and aberrant stimulation of its downstream signaling.
Significant increased expression of Immune cells has been observed in Compound 1 treatment.

[5] = tested on: RAS-MAPK pathway signaling in KRAS G12C mutant cell lines; assay: Reactivation of RAS signaling in KRAS G12C mutant cell lines; format: cell-based
Text: Densitometry of phosphor-ERK, MEK, AKT, and MYC is normalized to GAPDH. Results represent an average across 8 cell lines.

p53 = assay: Expression of p53 and apoptosis-related genes (qRT-PCR); format: cell-based; conditions: cancer cells
Procedure: FIG. 11 depicts compound I Targeting p53 (mRNA levels of p53, Puma, and Noxa in cells at 6 hours after compound I treatment. mRNA levels were quantified by qRT-PCR. Data were normalized to GAPDH expression and plotted relative to cells treated with DMSO as control)

BRCA 1/2-deficient cells = assay: Toxicity to BRCA-deficient cells; format: cell-based; conditions: including cisplatin-resistant ones
mitosis = assay: Cell cycle analysis of DNA content and phospho-histone H3B immunofluorescence; format: cell-based
Text: The present invention is aimed to invent powerful, therapeutic small molecules that could target mutant KRAS on its active sites. Here we identified a small molecule, compound I, that binds the GTP/GDP-binding pocket of KRAS. For this purpose we studied a strong correlation of measurement among a larger panel of tumor cell lines expressing KRAS mutation and analyses the potency to inhibit the tumor cell growth activated RAS. […] Therefore, compound I may be considered as a potential KRAS inhibitor for treatment of cancer cells carrying KRAS oncogene.

SMILES: CCCCc1ncc(C(=O)C2CC=C(C(N)=O)N2)cc1C(=O)OCC (stereo not drawn) [Compound 1]
- Axin level (RAS; control 0.25 ± 0.05): 1.96 ± 0.02
- APC level (RAS; control 0.63 ± 0.03): 0.96 ± 0.44
- GSk3β level (RAS; control 0.69 ± 0.02): 1.89 ± 0.23
- Beta Catenin level (RAS; control 1.32 ± 0.09): 0.66 ± 0.09
- RAS level (RAS; control 1.96 ± 0.06): 0.25 ± 0.03
- RAS degradation (RAS; via GSK3β phosphorylation): degrades the RAS
- miR21 expression ([1]; control 0.72 ± 0.02): 1.58 ± 0.32
- miR30c expression ([1]; control 0.96 ± 0.025): 1.89 ± 0.25
- NF1 expression ([1]; control 1.56 ± 0.06): 1.21 ± 0.033
- BID expression ([1]; control 1.56 ± 0.36): 0.32 ± 0.012
- RASA1 expression ([1]; control 1.69 ± 0.36): 0.32 ± 0.031
- expression of miR 30c and miR-21 ([1]; mutant form of KRAS, microarray analysis): significantly reduced
- Cmax (Pharmacokinetics in rats; rat, 10 mg/kg b.wt): Cmax = 1.9 μg/mL (10 mg/kg b.wt rat)
- T1/2 (Pharmacokinetics in rats; rats): T1/2 = 9.8 h (rats)
- T max (Pharmacokinetics in rats; rats, 10 mg/kg b.wt): T max = 2 h (rats, 10 mg/kg, b.wt; )
- AUC0-t_D ([2]; Brainstem): 85.63 ± 17.43 h × ng/g/mg, h × ng/mL/mg
- MRTQ-t ([2]; Brainstem): 5.89 ± 0.34 h
- Tmax ([2]; Brainstem): 1.35 ± 0.33 h
- T½ ([2]; Brainstem): 1.81 ± 0.23 h
- AUC0-t_D ([2]; Cortex): 152.08 ± 5.25 h × ng/g/mg, h × ng/mL/mg
- MRTQ-t ([2]; Cortex): 6.23 ± 0.65 h
- Tmax ([2]; Cortex): 1.14 ± 0.09 h
- T½ ([2]; Cortex): 5.86 ± 2.91 h
- AUC0-t_D ([2]; Hippocampus): 58.20 ± 15.36 h × ng/g/mg, h × ng/mL/mg
- MRTQ-t ([2]; Hippocampus): 5.18 ± 0.51 h
- Tmax ([2]; Hippocampus): 1.25 ± 1.08 h
- T½ ([2]; Hippocampus): 1.19 ± 0.22 h
- AUC0-t_D ([2]; Hypothalamus): 59.10 ± 5.06 h × ng/g/mg, h × ng/mL/mg
- MRTQ-t ([2]; Hypothalamus): 5.25 ± 0.60 h
- Tmax ([2]; Hypothalamus): 0.54 ± 0.24 h
- T½ ([2]; Hypothalamus): 1.18 ± 0.26 h
- AUC0-t_D ([2]; Striatum): 123.81 ± 4.90 h × ng/g/mg, h × ng/mL/mg
- MRTQ-t ([2]; Striatum): 6.75 ± 0.68 h
- Tmax ([2]; Striatum): 0.14 ± 0.09 h
- T½ ([2]; Striatum): 3.45 ± 0.93 h
- tumor growth suppression ([3]; all mutant-KRAS-expressing animal models, started at day 9): significant suppression from day 10-14
- relapse ([3]; for 6-8 months): no evidence of relapse
- reduction in tumor growth ([3]; within 28 days): 95%
- IC50 values, cancer cells and stem cells viability ([4]; KRAS G12D, G12V and G12C cell lines, 24 h): nanomolar concentration
- IC50 values, cancer cell viability ([4]; panel of 30+ cell lines with WT KRAS or known KRAS mutations): micromolar to nanomolar concentrations
- apoptosis compared with the untreated cells (KRAS mutant cell lines): significantly induced apoptosis
- GTP binding affinity in wild type KRAS (wild-type (WT) KRAS; wild type KRAS): no effect on GTP binding affinity
- effect on GTP-KRAS in cells with wild-type KRAS (wild-type (WT) KRAS; wild-type (WT) KRAS cells): no effect was observed
- MAPK pathway signaling (phosphor-MEK, phosphor-ERK, phosphor-AKT) ([5]; at 4 hours): suppressed MAPK pathway signaling
- rebound of RAS-MAPK pathway signaling (pMEK, pERK, pAKT, MYC) ([5]; by 72 hours): no rebound activity was observed
- expression of p53 (p53): upregulating the expression of p53
- toxicity to BRCA 1/2-deficient cells (BRCA 1/2-deficient cells): specifically toxic
- mitotic arrest (mitosis): induced mitotic arrest
